Like-named read-outs stand apart in the source and are kept apart here.
Experiments:
Format in all cases: biochemical
aggrecanase-1 = molecular target: T1, aggrecanase-1 (Homo sapiens, UniProt O75173); experiment: Aggrecanase-1 inhibitory action (Particle Assay, GAG release from aggrecan-containing polyacrylamide particles)
T1 sequence (O75173 213-837): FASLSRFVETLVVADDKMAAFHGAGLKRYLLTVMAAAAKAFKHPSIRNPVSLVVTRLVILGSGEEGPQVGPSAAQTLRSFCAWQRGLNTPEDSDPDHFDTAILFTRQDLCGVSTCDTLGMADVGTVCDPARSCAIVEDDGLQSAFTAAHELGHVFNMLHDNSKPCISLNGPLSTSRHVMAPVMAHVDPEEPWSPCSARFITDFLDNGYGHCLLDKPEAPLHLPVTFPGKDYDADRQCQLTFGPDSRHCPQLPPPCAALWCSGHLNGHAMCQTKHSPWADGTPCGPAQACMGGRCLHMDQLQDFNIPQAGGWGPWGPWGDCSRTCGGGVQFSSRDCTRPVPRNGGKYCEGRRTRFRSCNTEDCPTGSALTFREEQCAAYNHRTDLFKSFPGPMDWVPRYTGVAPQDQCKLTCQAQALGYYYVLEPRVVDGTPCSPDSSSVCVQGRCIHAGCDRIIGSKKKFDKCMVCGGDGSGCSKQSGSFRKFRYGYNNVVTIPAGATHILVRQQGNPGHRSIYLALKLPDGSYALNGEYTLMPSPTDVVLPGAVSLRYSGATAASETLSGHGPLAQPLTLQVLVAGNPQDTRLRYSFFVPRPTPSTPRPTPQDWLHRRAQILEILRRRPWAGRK
Method in brief: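 Readout was dimethylmethylene blue absorbance (595 nm) of glycosaminoglycan liberated into supernatant, calibrated with whale chondroitin sulfate. Substrate was aggrecan in polyacrylamide particles, digested 15 h at 37° C in Tris-HCl; TC50 (μM) derived from inhibition relative to no-enzyme and no-inhibitor controls.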

MMP-1 = molecular target: T2, MMP-1 (Homo sapiens, UniProt P03956); experiment: MMP-1 inhibitory action (Type I collagen Activity Measurement kit, FITC-labeled collagen type I)
T2 sequence (P03956 100-469): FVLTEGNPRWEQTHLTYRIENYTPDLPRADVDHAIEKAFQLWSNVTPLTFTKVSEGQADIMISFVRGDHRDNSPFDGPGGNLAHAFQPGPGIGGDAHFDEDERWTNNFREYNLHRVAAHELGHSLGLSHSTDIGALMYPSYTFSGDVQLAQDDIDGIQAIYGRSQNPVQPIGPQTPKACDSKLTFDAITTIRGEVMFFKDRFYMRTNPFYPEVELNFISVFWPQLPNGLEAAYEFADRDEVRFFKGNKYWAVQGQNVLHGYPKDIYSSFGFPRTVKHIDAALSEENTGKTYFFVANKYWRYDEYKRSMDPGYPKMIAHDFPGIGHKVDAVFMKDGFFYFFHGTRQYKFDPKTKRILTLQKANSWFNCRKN

Recombinant Human MMP-13 = molecular target: T3, Recombinant Human MMP-13 (Homo sapiens, UniProt P45452); experiment: MMP-13 inhibitory activity (MMP-13 specific fluorescent substrate with quencher)
T3 construct: purchased R&D systems 511-MM
Method in brief: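 IC50 (μM) derived from % inhibition, normalised to wells without enzyme and without inhibitor, fluorescence read at 325/405 nm. Enzyme and compound preceded addition of the quenched 7-MCA…DPA substrate; Tris-HCl buffer, 25 °C for 1 h, acetic-acid stop.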

[1] = Experimental Example 1, read-out: IC50 AG1
[2] = Experimental Example 2, read-out: IC50 MMP1
[3] = Experimental Example 3, read-out: IC50 MMP13
[4] = aggrecanase-1 inhibitory action, read-out: IC50 AG1 (Experimental Example 1)
[5] = MMP-1 inhibitory action, FITC-labeled collagen type I, 37° C. for 3 hr, read-out: IC50 MMP1 (Experimental Example 2)
[6] = Recombinant Human MMP-13, fluorescent substrate, 25° C. for 1 h, read-out: IC50 MMP13 (Experimental Example 3)

IC50 (aggrecanase-1; [1]) [nM] | IC50 (MMP-1; [2]) [nM] | IC50 (Recombinant Human MMP-13; [3]) [nM] | IC50 (aggrecanase-1; [4]) [nM] | IC50 (MMP-1; [5]) [nM] | IC50 (Recombinant Human MMP-13; [6]) [nM] | SMILES
< 1000 | ≥ 10000 | < 100 | – | – | – | O=C1OCCN1CC1(c2ccccc2)CC1(NS(=O)(=O)c1ccc(-c2ccc(Cl)cc2)s1)C(=O)O (stereo not drawn) [Example 2-362]
< 100 | < 1000 | < 100 | – | – | – | CC1[C@H](c2ccccc2)[C@]1(NS(=O)(=O)c1ccc(-c2cc(C(F)F)on2)cc1)C(=O)O (stereo partly drawn) [Example 2-401]
< 100 | ≥ 1000 | < 100 | – | – | – | CN1CCN(C(=O)Cc2ccc([C@@H]3C[C@]3(NS(=O)(=O)c3ccc(-c4cc(C(F)(F)F)on4)s3)C(=O)O)cc2)CC1 [Example 2-294]
– | – | – | ≥ 10000 | ≥ 10000 | ≥ 10000 | O=C1CCCCN1c1ccc(S(=O)(=O)N[C@@]2(C(=O)O)C[C@@H]2c2ccccc2)s1 [Example 2-164]
– | – | – | < 100 | ≥ 1000 | < 100 | COC(=O)CCc1cccc(C2CC2(NS(=O)(=O)c2ccc(-c3ccc(Cl)cc3)s2)C(=O)O)c1 (stereo not drawn) [Example 2-208]
< 100 | < 1000 | < 100 | – | – | – | Cc1cc(-c2ccc(S(=O)(=O)N[C@@]3(C(=O)O)C(C)[C@@H]3c3ccccc3)s2)no1 (stereo partly drawn) [Example 2-374]
– | – | – | < 100 | ≥ 1000 | < 100 | O=C(O)C1(NS(=O)(=O)c2ccc(-c3ccc(Cl)cc3)s2)C2CCCc3ccccc3C21 (stereo not drawn) [Example 2-8, (1R*,1aS*,8bS*)-1-[5-(4-chloro-phenyl)thiophene-2-sulfonylamino]-1,1a,2,3,4,8b-hexahydrobenzo[a]cyclopropane[c]cyclohepten-1-carboxylic acid]
– | – | – | < 1000 | ≥ 10000 | < 1000 | O=C(O)C1(NS(=O)(=O)c2ccc(-c3ccc(Cl)cc3)s2)CC1c1ccc(CO)cc1 (stereo not drawn) [Example 2-226]
– | – | – | < 1000 | ≥ 10000 | < 1000 | CCC1(c2ccccc2)CC1(NS(=O)(=O)c1ccc(-c2ccc(Cl)cc2)s1)C(=O)O (stereo not drawn) [Example 2-129]
– | – | – | < 1000 | ≥ 1000 | < 100 | COc1cccc(C2CC2(NS(=O)(=O)c2ccc(-c3ccc(Cl)cc3)cc2)C(=O)O)c1 (stereo not drawn) [Example 1-12]
– | – | – | ≥ 1000 | ≥ 10000 | < 100 | O=C(O)C1(NS(=O)(=O)c2ccc(-c3ccc(OC(F)(F)F)cc3)s2)CC1c1ccccc1 (stereo not drawn) [Example 2-17]
– | – | – | < 100 | < 1000 | < 100 | O=C(O)[C@]1(NS(=O)(=O)c2ccc(-c3cc(C(F)F)sn3)s2)C[C@@H]1c1ccccc1 [Example 2-119]
≥ 1000 | ≥ 10000 | ≥ 1000 | – | – | – | CC1[C@H](c2ccccc2)[C@]1(NS(=O)(=O)c1ccc(OCc2ccc(Cl)cc2Cl)cc1)C(=O)NO (stereo partly drawn) [Example 2-325]
– | – | – | < 1000 | ≥ 10000 | < 1000 | O=C(O)C1(NS(=O)(=O)c2ccc(-c3ccc(Cl)cc3)s2)CC1C1CCCCC1 (stereo not drawn) [Example 2-41]
≥ 1000 | ≥ 10000 | < 1000 | – | – | – | C[C@]1(c2ccccc2)C[C@@]1(NS(=O)(=O)c1ccc(-c2cccc(NS(C)(=O)=O)c2)s1)C(=O)O [Example 2-453]
≥ 1000 | ≥ 10000 | ≥ 1000 | – | – | – | CC1[C@H](c2ccccc2)[C@]1(NS(=O)(=O)c1ccc(OCc2ccc(Cl)cc2Cl)cc1)C(=O)O (stereo partly drawn) [Example 2-324]
– | – | – | < 1000 | ≥ 10000 | < 1000 | CN1CCN(C(=O)c2cccc(C3CC3(NS(=O)(=O)c3ccc(-c4ccc(Cl)cc4)s3)C(=O)O)c2)CC1 (stereo not drawn) [Example 2-200]
≥ 1000 | ≥ 1000 | ≥ 1000 | – | – | – | CC(C)OC(=O)N1CCN(S(=O)(=O)N[C@@]2(C(=O)O)C[C@@H]2c2ccccc2)CC1 [Example 2-510]
– | – | – | < 100 | ≥ 1000 | < 1000 | O=C(O)C1(NS(=O)(=O)c2ccc(-c3cc(C(F)(F)F)on3)s2)CC1c1cccc(N2CCOCC2)c1 (stereo not drawn) [Example 2-257]

IC50 (aggrecanase-1; [1]) [nM] | IC50 (MMP-1; [2]) [nM] | IC50 (Recombinant Human MMP-13; [3]) [nM] | IC50 (aggrecanase-1; [4]) [nM] | IC50 (MMP-1; [5]) [nM] | IC50 (Recombinant Human MMP-13; [6]) [nM] | SMILES
– | – | – | < 100 | ≥ 1000 | < 100 | O=C(NO)C1(NS(=O)(=O)c2ccc(OCc3ccc(Cl)cc3Cl)cc2)CC1c1ccccc1 (stereo not drawn) [Example 1-2, 1-[4-(2,4-Dichlorobenzyloxy)benzenesulfonylamino]-2-phenylcyclopropanecarboxylic acid hydroxyamide]
< 100 | ≥ 1000 | < 100 | – | – | – | O=C(O)[C@@]1(NS(=O)(=O)c2ccc(-c3cc(C(F)(F)F)on3)s2)C[C@H]1c1ccc(CCO)cc1 [Example 2-301]
≥ 1000 | ≥ 10000 | ≥ 1000 | – | – | – | CC(C)NCC1(c2ccccc2)CC1(NS(=O)(=O)c1ccc(-c2ccc(Cl)cc2)s1)C(=O)O (stereo not drawn) [Example 2-392]
< 100 | < 1000 | < 1000 | – | – | – | C[C@]1(c2ccccc2)C[C@@]1(NS(=O)(=O)c1ccc(-c2cc(C(F)F)on2)s1)C(=O)O [Example 2-382]
– | – | – | < 1000 | ≥ 10000 | < 1000 | O=C(O)[C@@]1(NS(=O)(=O)c2ccc3c(c2)Cc2cc(Br)ccc2-3)C[C@H]1c1ccccc1 [Example 1-109]
≥ 1000 | ≥ 1000 | < 1000 | – | – | – | CC1[C@H](c2ccccc2)[C@]1(NS(=O)(=O)c1ccc(-c2cn3cccnc3n2)s1)C(=O)O (stereo partly drawn) [Example 2-571]
≥ 1000 | ≥ 1000 | < 1000 | – | – | – | O=C(O)[C@]1(NS(=O)(=O)c2ccc(-n3cc(C(F)(F)F)cn3)nc2)C[C@@H]1c1ccccc1 [Example 2-558]
– | – | – | < 1000 | ≥ 1000 | < 1000 | O=C(O)C1(NS(=O)(=O)c2ccc(-c3ccc4c(c3)Cc3ccccc3-4)cc2)CC1c1ccccc1 (stereo not drawn) [Example 1-54]
< 100 | ≥ 10000 | < 1000 | – | – | – | O=C(O)C1(NS(=O)(=O)c2ccc(-c3ccc(Cl)cc3)s2)CC1(CSCCO)c1ccccc1 (stereo not drawn) [Example 2-345]
< 1000 | ≥ 1000 | ≥ 1000 | – | – | – | C[C@]1(c2ccccc2)C[C@@]1(NS(=O)(=O)c1ccc(-c2cc(O)c(F)c(F)c2)s1)C(=O)O [Example 2-601]
≥ 1000 | ≥ 10000 | ≥ 1000 | – | – | – | CC1CCC(N2CCN(S(=O)(=O)N[C@@]3(C(=O)O)C(C)[C@@H]3c3ccccc3)CC2)CC1 (stereo partly drawn) [Example 2-442]
– | – | – | ≥ 10000 | ≥ 10000 | ≥ 10000 | CC(C)(C)C#Cc1ccc(S(=O)(=O)N[C@@]2(C(=O)O)C[C@@H]2c2ccccc2)s1 [Example 2-132]
< 1000 | ≥ 1000 | < 100 | – | – | – | CC1[C@H](c2ccccc2)[C@]1(NS(=O)(=O)c1ccc(-c2cn3ccccc3n2)s1)C(=O)O (stereo partly drawn) [Example 2-570]
– | – | – | ≥ 1000 | ≥ 10000 | ≥ 1000 | O=C(O)C1(CS(=O)(=O)N2CCN(c3ccc(Cl)cc3)CC2)CC1c1ccccc1 (stereo not drawn) [Example 2-186]
≥ 1000 | ≥ 1000 | ≥ 1000 | – | – | – | CC1[C@H](c2ccccc2)[C@]1(NS(=O)(=O)N1CCC(OCc2ccc(Cl)cc2Cl)C1)C(=O)O (stereo partly drawn) [Example 2-553]
≥ 1000 | ≥ 10000 | ≥ 1000 | – | – | – | O=C(Nc1ccc(S(=O)(=O)N[C@@]2(C(=O)O)C[C@@H]2c2ccccc2)cc1)c1ccccc1 [Example 2-473]
≥ 1000 | ≥ 1000 | ≥ 1000 | – | – | – | CC(C)CCN1CCN(S(=O)(=O)N[C@@]2(C(=O)O)C[C@@H]2c2ccccc2)CC1 [Example 2-511]
< 1000 | < 1000 | < 1000 | – | – | – | O=C(O)C1(NS(=O)(=O)c2ccc(-c3ccc(Cl)cc3)s2)CC1(COCc1ccccc1)c1ccccc1 (stereo not drawn) [Example 2-356]
≥ 1000 | < 1000 | < 100 | – | – | – | CC1[C@H](c2ccccc2)[C@]1(NS(=O)(=O)c1ccc(-n2cc(C(F)(F)F)cn2)cc1)C(=O)O (stereo partly drawn) [Example 2-507]
